Measured values taken from ChEMBL document CHEMBL2406926, “C-Glucopyranosyl-1,2,4-triazoles As New Potent Inhibitors of Glycogen Phosphorylase” (ACS Med Chem Lett, 2013).

Target: T1, Glycogen phosphorylase, muscle form (Oryctolagus cuniculus, UniProt P00489)
T1 sequence (P00489 whole entry): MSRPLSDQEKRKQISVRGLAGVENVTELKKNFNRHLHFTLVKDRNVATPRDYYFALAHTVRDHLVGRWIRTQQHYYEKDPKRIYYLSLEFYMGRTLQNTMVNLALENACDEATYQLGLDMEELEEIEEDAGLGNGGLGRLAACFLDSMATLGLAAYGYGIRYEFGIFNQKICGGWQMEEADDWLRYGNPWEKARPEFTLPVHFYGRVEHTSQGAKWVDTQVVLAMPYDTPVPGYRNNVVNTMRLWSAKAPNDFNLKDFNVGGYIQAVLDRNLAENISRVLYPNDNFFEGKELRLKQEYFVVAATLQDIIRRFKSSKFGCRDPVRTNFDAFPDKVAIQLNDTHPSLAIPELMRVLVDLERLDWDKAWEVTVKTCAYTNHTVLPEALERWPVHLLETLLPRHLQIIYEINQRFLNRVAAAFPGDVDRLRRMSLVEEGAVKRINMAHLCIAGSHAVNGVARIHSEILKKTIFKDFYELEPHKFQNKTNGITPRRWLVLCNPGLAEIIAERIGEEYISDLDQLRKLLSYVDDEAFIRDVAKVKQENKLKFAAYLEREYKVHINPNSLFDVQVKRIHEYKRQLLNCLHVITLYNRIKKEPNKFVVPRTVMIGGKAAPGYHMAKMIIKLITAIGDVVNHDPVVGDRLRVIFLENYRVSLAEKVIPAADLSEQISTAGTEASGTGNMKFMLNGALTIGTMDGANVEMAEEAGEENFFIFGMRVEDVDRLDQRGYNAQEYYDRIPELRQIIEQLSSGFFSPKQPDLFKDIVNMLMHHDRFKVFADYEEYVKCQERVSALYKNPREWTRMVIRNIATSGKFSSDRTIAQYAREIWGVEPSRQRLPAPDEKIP
Assay: Competitive inhibition of rabbit muscle glycogen phosphorylase b
Set-up: species or system Muscle tissue

Compound | Ki
OC[C@H]1O[C@@H](c2nc(-c3ccc4ccccc4c3)n[nH]2)[C@H](O)[C@@H](O)[C@@H]1O | 0.41 µM
OCc1n[nH]c([C@@H]2O[C@H](CO)[C@@H](O)[C@H](O)[C@H]2O)n1 | 105 µM
OC[C@H]1O[C@@H](c2nnc(-c3ccccc3)[nH]2)[C@H](O)[C@@H](O)[C@@H]1O | 7 µM
